Assay results reported in the CheMixHub ionic liquid set.

Test: xn = mol fraction of the nth substance listed

CCCCCCCCCCCCCCCC[n+]1ccccc1.O=C([O-])c1ccccc1O + NCC(=O)O + O
electrical conductivity [S/m], 101 kPa
Details	293.15 K	298.15 K	303.15 K	308.15 K	313.15 K
x2 = 0.0009002, x1 = 5.4e-07	0.000445	0.000504	0.00057	0.000642	0.000723
x2 = 0.0009002, x1 = 1.26e-06	0.00068	0.000773	0.00087	0.000972	0.00108
x2 = 0.0009002, x1 = 1.63e-06	0.000841	0.000952	0.00107	0.0012	0.00134
x2 = 0.0009002, x1 = 1.99e-06	0.000997	0.00113	0.00127	0.00141	0.00156
x2 = 0.0009002, x1 = 2.35e-06	0.00114	0.00129	0.00145	0.00161	0.00179
x2 = 0.0009002, x1 = 2.89e-06	0.00127	0.00145	0.00164	0.00184	0.00205
x2 = 0.0009002, x1 = 3.43e-06	0.00141	0.00161	0.00185	0.00211	0.00234
x2 = 0.0009002, x1 = 4.16e-06	0.00157	0.0018	0.00206	0.00234	0.00264
x2 = 0.0009002, x1 = 4.88e-06	0.00173	0.00198	0.00226	0.00258	0.00292
x2 = 0.0009002, x1 = 5.6e-06	0.0019	0.00216	0.00247	0.00281	0.00318
x2 = 0.0009002, x1 = 6.32e-06	0.00205	0.00234	0.00267	0.00302	0.00343
x2 = 0.0009002, x1 = 6.87e-06	–	–	–	–	0.00364
x2 = 0.0009002, x1 = 7.05e-06	0.00217	0.0025	0.00284	0.00321	–
x2 = 0.0009002, x1 = 7.59e-06	0.00232	0.00264	0.003	0.00339	0.00383
x2 = 0.0009002, x1 = 8.13e-06	0.00244	0.00278	0.00314	0.00356	0.00402
x2 = 0.0009002, x1 = 8.67e-06	0.00258	0.00292	0.00331	0.00374	0.00421
x2 = 0.001799, x1 = 3.6e-07	0.000498	0.000578	0.00067	0.000776	0.0009
x2 = 0.001799, x1 = 9.1e-07	0.000684	0.000791	0.00091	0.00104	0.00119
x2 = 0.001799, x1 = 1.45e-06	0.000895	0.00102	0.00117	0.00132	0.0015
x2 = 0.001799, x1 = 1.99e-06	0.0011	0.00125	0.00141	0.0016	0.0018
x2 = 0.001799, x1 = 2.17e-06	0.00119	0.00135	0.00153	0.00172	0.00194
x2 = 0.001799, x1 = 2.54e-06	0.00127	0.00145	0.00166	0.00187	0.00209
x2 = 0.001799, x1 = 2.72e-06	0.00134	0.00155	0.00178	0.002	0.00225
x2 = 0.001799, x1 = 3.08e-06	0.0014	0.00162	0.00186	0.0021	0.00237
x2 = 0.001799, x1 = 3.26e-06	–	–	0.00195	0.00223	0.00251
x2 = 0.001799, x1 = 3.44e-06	0.00146	0.00169	–	–	–
x2 = 0.001799, x1 = 3.81e-06	0.00155	0.0018	0.00206	0.00236	0.00267
x2 = 0.001799, x1 = 4.35e-06	0.00167	0.00192	0.0022	0.00253	0.00287
x2 = 0.001799, x1 = 4.89e-06	0.00179	0.00206	0.00236	0.0027	0.00307
x2 = 0.001799, x1 = 5.44e-06	0.00192	0.0022	0.00252	0.00289	0.00328
x2 = 0.001799, x1 = 5.98e-06	0.00202	0.00232	0.00265	0.00303	0.00344
x2 = 0.001799, x1 = 6.34e-06	–	–	–	–	0.00359
x2 = 0.001799, x1 = 6.52e-06	0.00213	0.00244	0.00278	0.00316	–

CCCC[n+]1ccn(C)c1.O=S(=O)([O-])C(F)(F)F + NCCO
Details	viscosity [mPa·s]
293.15 K, 101 kPa, x2 = 0.3209	52.92

CCCC[n+]1ccn(C)c1.[Cl-] + NCCO
viscosity [mPa·s], 100 kPa
Details	293 K	303 K	303.1 K	313.1 K	333.2 K
x2 = 0.5	–	–	95.3	57	24.9
x2 = 0.677	62.3	37.1	–	24.1	–
